In patent US20100234417A1, “THYROTROPIN RELEASING HORMONE RECEPTOR-OREXIN RECEPTOR HETERO-DIMERS/-OLIGOMERS” (DIMERIX BIOSCIENCE PTY LTD., priority 2006, published 2010):

Experiments:
[1] = system: thyrotropin releasing hormone receptor/orexin receptor hetero-dimer/-oligomer (TRHR with OxR1); assay: eBRET: TRHR/Rluc + barr2/Venus + OxR1 as IG3 in HEK293 cells; format: cell-based; conditions: OxR1, FIG. 6
Protocol: (§1) Briefly, referring to FIGS. 1 to 3, the IGs are provided in the form of the two receptors (TRHR and OxR). One of the two is attached to an RC (IG1-RC1, IG3). A second IG (IG2-RC2) is derived from a molecule that interacts with the receptors upon ligand binding (e.g. beta-arrestin, or a mutant thereof).
(§2) Cells were seeded in 6-well plates at a density of approximately 630,000 cells/well (HEK293FT) or approximately 150,000 cells/well (COS-7) and maintained at 37° C., 5% CO2 in Complete Media (DMEM containing 0.3 mg/ml glutamine, 100 IU/ml penicillin and 100 μg/ml streptomycin (Gibco)) supplemented with 10% fetal calf serum (FCS; Gibco). Transient transfections were carried out 24 h after seeding using GeneJuice (Novagen) or Metafectene (Biontex) according to manufacturer instructions. 24 h post-transfection, cells were washed with PBS, detached using 0.05% trypsin/0.53 mM EDTA, resuspended in HEPES-buffered phenol red free Complete Media containing 5% FCS and added to a poly-L-lysine-coated white microplate (Nunc). 48 h post-transfection, eBRET assays were carried out following pre-incubation of cells with EnduRen™ (Promega) at a final concentration of 30-40 μM, at 37° C., 5% CO2 for 2 h. For original BRET studies, the HEPES-buffered phenol red free Complete Media was replaced with PBS and coelenterazine h (Molecular Probes) added to a final concentration of 5 μM immediately prior to commencing the assay. […] Filtered light emissions were sequentially measured for 3-5 s in each of the ‘donor wavelength window’ (400-475 nm) and ‘acceptor wavelength window’ (>500 nm for EGFP or 520-540 nm for EYFP, Topaz (TYFP) or Venus). The BRET signal observed between interacting proteins is normalized by subtracting the background BRET ratio. […] In this case, data are shown as ‘fluorescence/luminescence’ being the ratio of light emission through the ‘acceptor wavelength window’ over the 400-475 nm emission for a particular cell sample. Unless otherwise stated, BRET signals were measured in 96-well microplates. […]

[2] = system: thyrotropin releasing hormone receptor/orexin receptor hetero-dimer/-oligomer (TRHR with OxR2); assay: eBRET/BRET detection of TRHR-OxR2 association: TRHR/Rluc + tagged beta-arrestin + OxR2 as IG3 in HEK293 cells; format: cell-based; conditions: OxR2, FIG. 6
Protocol: as §1
as §2, with “In the following examples, the first calculation will be used, unless the signal is described as the ‘ligand-induced BRET ratio’. […] In” for “In”
Cells not pretreated with antagonist were pretreated with PBS instead for the same amount of time. […]

[3] = system: animals studied (narcolepsy); conditions: cited from earlier work
[4] = 10^−6M SB-334867-A approx. 40 minutes before 10^−6M OxA
[5] = 10^−6M SB-334867-A approx. 40 minutes before 10^−6M TRH and OxA
[6] = dose- and time-dependent manner

Compound	effect of antagonist pretreatment on OxA-induced eBRET signal [1, 4]	effect of antagonist pretreatment on TRH + OxA-induced eBRET signal [1, 5]	effect of antagonist pretreatment on OxA-induced eBRET signal [2, 4]	effect of antagonist pretreatment on TRH + OxA-induced eBRET signal [2, 5]	rapid eye movement (REM) sleep [3, 6]	slow wave sleep (SWS) [3, 6]	cataplexy ([3]; in most of the animals studied)
Cc1nc2ccc(NC(=O)Nc3ccnc4cccnc34)cc2o1.Cl [SB-334867-A, 1-(2-methylbenzoxazol-6-yl)-3-[1,5]naphthyridin-4-yl urea hydrochloride]	reduced	reduced	not affected	did not differ	–	–	–
CN1C(=O)C[C@@H](C(=O)N[C@@H](Cc2c[nH]cn2)C(=O)N2CCC[C@H]2C(N)=O)NC1=O.O.O.O.O [TA-0910]	–	–	–	–	significantly reduced	significantly reduced	completely suppressed
